Experimental findings from patent US9963441B2, “Histone demethylase inhibitors” (CELGENE QUANTICEL RESEARCH, INC., priority 2013, dated 2018) are described below.

By IC50 is commonly meant the concentration needed to halve the response being measured. A low value points to inhibition by little substance.

The target in this experiment is T1, JMJD2C (Homo sapiens, UniProt Q9H3R0).
T1 construct: purchased BPS Bioscience 50105
T1 sequence (Q9H3R0 2-372): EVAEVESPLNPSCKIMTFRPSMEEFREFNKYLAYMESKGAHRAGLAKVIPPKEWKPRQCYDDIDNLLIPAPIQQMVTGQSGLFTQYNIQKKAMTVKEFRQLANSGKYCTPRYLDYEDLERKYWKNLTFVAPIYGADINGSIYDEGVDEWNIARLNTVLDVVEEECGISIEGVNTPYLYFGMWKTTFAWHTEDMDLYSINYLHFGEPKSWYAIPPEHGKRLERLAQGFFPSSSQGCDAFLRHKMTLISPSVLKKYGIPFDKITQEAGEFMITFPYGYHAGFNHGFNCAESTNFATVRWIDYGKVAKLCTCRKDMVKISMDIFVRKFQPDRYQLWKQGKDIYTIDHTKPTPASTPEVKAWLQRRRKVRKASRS
The experiment in a line: JMJD2C in vitro enzyme inhibition assay (TR-FRET). The experiment is classed as biochemical. (In TR-FRET formats the signal depends on donor and acceptor labels being close together.)

Procedure: This assay determines the ability of a test compound to inhibit Jarid1A, Jarid1B, JMJD2C, and JMJD2A demethylase activity. […] Baculovirus expressed JMJD2C (GenBank Accession #BC143571, AA 2-372) was purchased from BPS Bioscience (Cat#50105).
The ability of test compounds to inhibit the activity of JMJD2C was determined in 384-well plate format under the following reaction conditions: 0.3 nM JMJD2C, 300 nM H3K9me3-biotin labeled peptide (Anaspec cat #64360), 2 μM alpha-ketoglutaric acid in assay buffer of 50 mM HEPES, pH7.3, 0.005% Brij35, 0.5 mM TCEP, 0.2 mg/ml BSA, 50 μM sodium L-ascorbate, and 2 μM ammonium iron(II) sulfate. Reaction product was determined quantitatively by TR-FRET after the addition of detection reagent Phycolink Streptavidin-allophycocyanin (Prozyme) and Europium-anti-di-methylated histone H3 lysine 9 (H3K9me2) antibody (PerkinElmer) in the presence of 5 mM EDTA in LANCE detection buffer (PerkinElmer) at a final concentration of 50 nM and 1 nM, respectively.
The assay reaction was initiated by the following: 2 μl of the mixture of 900 nM H3K9me3-biotin labeled peptide and 6 μM alpha-ketoglutaric acid with 2 μl of 11-point serial diluted inhibitor in 3% DMSO were added to each well of the plate, followed by the addition of 2 μl of 0.9 nM JMJD2C to initiate the reaction. […]

Compound `Cn1cnc(-c2cc(-c3nn[nH]n3)ccn2)c1-c1ccc(Cl)c(OCc2ccccc2)c1` [Example 161, 2-[5-(4-chloro-3-phenylmethoxyphenyl)-1-methylimidazol-4-yl]-4-(2H-tetrazol-5-yl)pyridine] returned an IC50 of 1 to 10 µM.
